The values that follow come from patent US10245249B2, “Pharmaceutical compositions comprising nitroxyl donors” (Cardioxyl Pharmaceuticals, Inc., priority 2013, dated 2019).

The subject of one data set is beagle dogs. The data set is described as follows: Canine peripheral vein toxicity model, 24 hour infusion (clinical pathology markers of inflammation: WBC, fibrinogen, CRP). Particulars: for NOAEL (μg/kg/min) (actual): based on clinical pathology markers (WBC, fibrinogen, CRP), 24 hour infusion, CAPTISOL 7% w/v, pH 4. It is filed as in vivo. The method, then:
Key inflammatory markers measured include white blood cells (WBC), fibrinogen, and C-reactive protein (CRP).
After 24 hours of infusion, clinical pathology changes similar to those observed in previous studies using an implanted central catheter were detected.
Studies were conducted in male and female beagle dogs. Animals were allowed free access to drinking water and a commercial canine diet under standard laboratory conditions. Animals were fasted prior to blood sample collections when indicated by the study protocol. Fluorescent lighting was provided via an automatic timer for approximately 12 hours per day. On occasion, the dark cycle was interrupted intermittently due to study-related activities. Temperature and humidity were monitored and recorded daily and maintained to the maximum extent possible between 64° F. to 84° F. and 30% to 70%, respectively. The dogs were acclimated for a period of at least 1 week. During this period, the animals were weighed weekly and observed with respect to general health and any signs of disease. The animals were acclimated to wearing a jacket for at least three days prior to dose administration. Additionally, the animals were also acclimated to wearing an Elizabethan collar (e-collar) during the jacket acclimation.
Animals were catheterized the day prior to dose administration. A percutaneous catheter was placed (using aseptic technique and sterile bandaging) in the cephalic vein distal to the elbow. The animals were free-moving in their cages during continuous infusion dose administration. To facilitate continuous infusion dose administration, the peripheral catheter was attached to an extension set routed underneath a canine jacket and then attached to a tether infusion system. To prevent the animals from accessing/removing the peripherally placed percutaneous catheter, the catheterization site was bandaged using Vet Wrap and an e-collar was placed on the animals for the duration of the treatment (i.e., the catheterized period). During the pretreatment period, the venous catheter was infused continuously at a rate of approximately 2-4 mL/hr with 0.9% sodium chloride for injection, USP (saline) to maintain catheter patency. Prior to dosing, the infusion system was pre-filled (slow bolus infusion) with the respective dosing solution to ensure that dosing began as soon as the infusion pump was started. The infusion line was connected to a reservoir containing the control or test compound and the infusion was started. Test compositions were infused continuously, at a predetermined constant infusion rate (1 or 2 mL/kg/hr), for 24 hours and were compared at molar equivalent dose rates.
A detailed clinical examination of each animal was performed twice daily and body temperature measurements and blood samples for clinical pathology were collected from all animals pre-dose and 6 hours, 12 hours, 24 hours and 72 hours post start of composition infusion. At the termination of the study, all animals were euthanized at their scheduled necropsy and complete necropsy examinations were performed. Selected tissues were collected, fixed and stored for potential future microscopic examination. The cephalic vein containing the infusion catheter was dissected intact along with the brachial vein and examined along its entire length. The location of the catheter tip was marked on the unfixed specimen. After fixation, the specimen was trimmed and processed to slide to provide transverse histologic sections representing the catheter tip and surrounding tissues both proximal and distal to the catheter tip (i.e., 1 cm distal to the catheter tip, at the catheter tip, and 1, 5, 10, 15, and 20 cm proximal to the catheter tip). Relative to the catheter tip, “proximal” was defined as closer to the heart and “distal” was defined as further from the heart.
Each compound was formulated with CAPTISOL® (7% w/v) in sterile water at a pH of 4. […]

Data set [1] in a line: HNO production determined via N2O quantification (GC headspace analysis). The data set is classed as physicochemical. Particulars: PBS, 37° C. In outline: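 Compounds dissolved in argon-purged anhydrous DMF were added to argon-purged PBS in sealed vials at 37° C for the set incubation time; headspace N2O was measured by GC with micro-ECD. N2O gas and CXL-1020 served as standards, and relative N2O yield (%) was calculated per incubation time.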

Regarding `CS(=O)(=O)c1ccccc1S(=O)(=O)NO` [CXL-1020, N-hydroxy-2-methanesulfonylbenzene-1-sulfonamide, reference compound], the “finding in upper forelimb downstream from catheter tip” value in the data set on beagle dogs (after 6 hours of infusion, percutaneous catheter in cephalic vein, dogs) is listed as “significant edema”. Moreover, in the data set on beagle dogs (after 24 hours of infusion, percutaneous catheter in cephalic vein, dogs), the “microscopic pathology at the catheter tip” value is on record as “severe thrombophlebitis”. Moreover, the “NOAEL (μg/kg/min) (actual)” value in the data set with beagle dogs is below 0.03 µg/kg/min.

Turning to `Cc1ccc(S(=O)(=O)NO)o1` [Compound 1, N-Hydroxy-5-methylfuran-2-sulfonamide], the “improvement relative to CXL-1020” value in the data set on beagle dogs (NOAEL, clinical pathology markers) was “greater than 660 fold”. For the same compound, in the data set on beagle dogs, the “NOAEL (μg/kg/min) (actual)” value was above 20 µg/kg/min. For the same compound, the “NOAEL compared with CXL-1020” value in the data set on beagle dogs (clinical pathology markers) was “significantly higher than that of CXL-1020”. Moreover, the “Relative N2O Yield (90 minutes incubation)” value in data set [1] was determined as 52%.

For `CS(=O)(=O)c1cccc(S(=O)(=O)NO)c1` [Compound 2, N-Hydroxy-3-methanesulfonylbenzene-1-sulfonamide], in the data set on beagle dogs, the “NOAEL (μg/kg/min) (actual)” value turned out to be 3 µg/kg/min. Further, the “NOAEL compared with CXL-1020” value in the data set with beagle dogs (clinical pathology markers) is reported as “significantly higher than that of CXL-1020”. In data set [1], the “Relative N2O Yield (90 minutes incubation)” value came to 82% and the “Relative N2O Yield (360 minutes incubation)” value is given as 94%.

On to `O=S(=O)(NO)c1ccco1` [Compound 83, N-Hydroxyfuran-2-sulfonamide], for which the “NOAEL (μg/kg/min) (actual)” value in the data set on beagle dogs amounted to 3 µg/kg/min. Further, the “NOAEL compared with CXL-1020” value with beagle dogs (clinical pathology markers) is “significantly higher than that of CXL-1020”. In data set [1], the “Relative N2O Yield (90 minutes incubation)” value is 42% and the “Relative N2O Yield (360 minutes incubation)” value was 86%.

`Cc1ccc(S(=O)(=O)NO)s1` [Compound 84, N-Hydroxy-5-methylthiophene-2-sulfonamide]: in the data set with beagle dogs, the “NOAEL (μg/kg/min) (actual)” value came to 10 µg/kg/min. In addition, the “NOAEL compared with CXL-1020” value in the data set on beagle dogs (clinical pathology markers) is “significantly higher than that of CXL-1020”. In data set [1], the “Relative N2O Yield (90 minutes incubation)” value amounted to 52% and the “Relative N2O Yield (360 minutes incubation)” value came out at 67%.

Consider `Cn1ccc(S(=O)(=O)NO)n1` [Compound 85, N-Hydroxy-1-methyl-1H-pyrazole-3-sulfonamide], for which, in the data set with beagle dogs, the “NOAEL (μg/kg/min) (actual)” value stood at 3 µg/kg/min. In addition, the “NOAEL compared with CXL-1020” value in the data set on beagle dogs (clinical pathology markers) is listed as “significantly higher than that of CXL-1020”. Also, the “Relative N2O Yield (90 minutes incubation)” value in data set [1] worked out at 33.5%.
